Entries after “also recorded” stand apart in the source; their conditions may differ.

Test [1] deals with F-actin. Nature of the test: Protein co-sedimentation / actin bundling (differential centrifugation, SDS gel). In kind it is biochemical, human. The following applies: co-sedimentation; F-actin with Tau (1:1) or Tau peptides (1:10; Tau(254–268) 1:30), room temperature 30 min. As for the experimental part: The ability of Tau to bundle F-actin was studied using electron microscopy (EM). […] Next, Tau/F-actin co-sedimentation was performed. The same sample, which was used for EM, was exposed to two sequential steps of centrifugation, in which single-actin filaments and actin bundles were collected separately. Subsequently, aliquots from supernatant (SN), filament (PF), and bundle (PB) fractions were loaded in a 4–20% gradient gel (Fig. 1c).
(§1) The sample was then dialyzed against General Actin Buffer (GAB; 5 mM TrisHCl pH 8.0, 0.2 mM CaCl2, 0.2 mM ATP, 0.5 mM DTT) or NMR buffer (50 mM NaH2PO4/Na2HPO4 pH 6.8, 10 mM NaCl, 1 mM DTT, 10% (v/v) D2O) to be used for electron microscopy or NMR experiments, respectively. In case of actin, lyophilized actin was reconstituted to 10 mg ml^−1 by adding 100 μl of distilled water to be in the following buffer: GAB with 5% (w/v) sucrose and 1% (w/v) dextran. Subsequently, the sample was spun at 18,400 × g for 15 min, the supernatant was kept, and actin was polymerized by incubating 0.4 mg ml^−1 G-actin in GAB and supplemented with polymerization buffer (1/10th the volume; 100 mM Tris HCl pH 7.5, 20 mM MgCl2, 500 mM KCl, 10 mM ATP) for 1 h at room temperature. Afterwards, the sample was centrifuged at 100,000 × g during 1 h at 4 °C. Filaments were collected at the bottom of the ultracentrifuge tube. The pellet was then resuspended in GAB or NMR Buffer as required.
Mixtures of F-actin with Tau (1:1) or Tau peptides (1:10 molar ratio) were incubated at room temperature for 30 min. In case of the shorter peptide Tau(254–268), a 1:30 ratio was used. Centrifugation was performed in two steps. First, a spin rate of 5000 × g was used during 15 min to collect bundles of F-actin (PB) at the bottom of the tube. Secondly, the remaining sample was centrifuged at 100,000 × g during 1 h collecting actin filaments (PF). The final supernatant (SN) was also kept for later usage. Pellets were resuspended in 80 μl of GAB. A volume of 25 μl of sample were taken for EM while the remaining 55 μl were loaded in a 4–20% gradient SDS gel, which was colored with […] and denatured with SDS and heat.

Test [2] deals with F-actin. The test can be described thus: 2D 1H-15N HSQC NMR signal attenuation of Tau by F-actin. Conditions: Tau/F-actin molar ratio 1:1.5; compared with non-phosphorylated Tau. In kind it is binding, human. The text has this:
In order to identify residues in Tau that bind to F-actin, we used NMR spectroscopy. […] According to the resonance assignment of Tau[27], cross-peaks from residues such as S262, N265, and T319 were strongly attenuated. Other residues including T175 and T217 were less affected, and S46 and S64 were not perturbed. Figure 1f highlights the sequence specific intensity ratio of all non-overlapping cross-peaks of Tau in the presence and absence of F-actin. […] In contrast, residues, which are bound to F-actin, should have low (I bound/I free) values, because their resonances would—due to the high molecular weight of the complex—be attenuated. […] Consistent with this hypothesis, the cross-peaks of these residues were attenuated by F-actin also at higher ionic strength (Supplementary Fig. 3).
The sample was then dialyzed against General Actin Buffer (GAB; 5 mM TrisHCl pH 8.0, 0.2 mM CaCl2, 0.2 mM ATP, 0.5 mM DTT) or NMR buffer (50 mM NaH2PO4/Na2HPO4 pH 6.8, 10 mM NaCl, 1 mM DTT, 10% (v/v) D2O) to be used for electron microscopy or NMR experiments, respectively. In case of actin, lyophilized actin was reconstituted to 10 mg ml^−1 by adding 100 μl of distilled water to be in the following buffer: GAB with 5% (w/v) sucrose and 1% (w/v) dextran. […]

In another test the target is T1, NBD-labeled F-actin (Oryctolagus cuniculus, UniProt P68135).
T1 construct: NBD-conjugated actin from α-skeletal muscle was bought from Hypermol; purchased Hypermol (Bielefeld, Germany); host or cells: α-skeletal muscle (tissue-derived (so in the source))
Nature of the test: F-actin binding assay (NBD fluorescence change). The following applies: NBD-labeled F-actin, GAB, 25 °C; values only in Supplementary Fig. 1b bar diagram.

The subject of test [3] is F-actin. The test can be described thus: Saturation transfer difference (STD) NMR with F-actin. In kind it is binding, human. Conditions: compared with wild-type Tau(254–290). On the procedure:
We therefore prepared a mutant version of Tau(254–290), in which L266 was replaced by a glutamate, i.e., Tau(254–290)-L266E. We then used saturation transfer difference (STD)[49] experiments to probe the influence of the mutation on binding of Tau(254–290) to F-actin.
as §1

The test system of test [4] is F-actin. Nature of the test: Transfer NOE (2D NOESY) of Tau peptides with F-actin. In kind it is binding, human. The following applies: 27 μM F-actin, 800 μM peptide, NMR buffer pH 6.8 with 0.2 mM ATP and 0.2 mM CaCl2, 278 K.
Text: Instead, short hydrophobic Tau segments, which are separated from each other by flexible residues, bind dynamically to actin’s hydrophobic pocket (Fig. 2). […] NMR Nuclear overhauser effect (NOE) measurements that are sensitive for three-dimensional structure were subsequently performed. […] This approach is called transfer NOE and has been widely used to determine the structure of small ligands in complex with high molecular weight binding partners.
Two-dimensional NOESY experiments with five different mixing times ranging from 50 up to 250 ms were recorded for Tau(254–290) in the presence of F-actin. […] The NOE peaks, which were observed only in the presence of F-actin, provide experimental restraints for the structure of Tau(254–290) in complex with F-actin.
as §1
NMR spectra were acquired on Bruker Avance800 and 900 MHz NMR spectrometers at 278 K to reduce solvent exchange. 2D ^1H-^15N HSQC spectra consisted of 64 scans, spectral windows of 12 ppm in the proton and 25 ppm in the nitrogen dimension. 2D NOESY experiments were acquired using 88 scans, 12 ppm spectral width and a time domain of 512 and 2048 points in the first and second dimension, respectively. To generate buildup curves, mixing times of 50, 80, 100, 150, and 250 ms were used.
For NOESY experiments, 27 μM of F-actin were mixed with 800 μM of Tau peptide in NMR buffer supplemented with 0.2 mM ATP and 0.2 mM CaCl2. A reference experiment was performed in similar conditions only with 800 μM peptide. For resonance assignment, a 2D TOCSY experiment with a mixing time of 75 ms was performed. All data were processed using NMRPipe[76] and analyzed using Sparky[77].

Experimental for NBD-labeled F-actin: In order to gain insight into the affinity of the Tau/F-actin-interaction, the change in fluorescence of 7-chloro-4-nitrobenz-2-oxa-1,3-diazole (NBD)-labeled F-actin upon addition of Tau was followed[31]. 0.2 μM of NBD-labeled and phalloidin-stabilized F-actin were mixed with increasing amounts of Tau (Fig. 1d and Supplementary Fig. 1).
NBD-conjugated actin from α-skeletal muscle was bought from Hypermol (Bielefeld, Germany). In this experiment, 7-chloro-4-nitrobenz-2-oxa-1,3-diazole (NBD)-labeled G-actin was polymerized starting from 0.4 mg ml^−1 of the conjugated actin supplemented with 10-fold excess of phalloidin (catalog no. P2141, Sigma-Aldrich) to provide stable filaments. […] The change of fluorescence intensity from NBD was followed in a Cary Eclipse fluorescence spectrophotometer (Agilent Technologies, Inc.). […] As reported by Hertzog, M. et al.[31] the normalized decrease in fluorescence (equation 1) was analyzed and fitted by using equation 2.1 E=F-F0/Fmax-F0 2 E=1/2C+1/2Z-1/2C+Z^2-4Z with Z=[partner]/[F-actin]andC=1+Kd/[F-actin]
Affinity of Tau and Tau fragments for binding to NBD-labeled F-actin. (a) Change of NBD fluorescence upon addition of increasing concentrations of Tau and Tau fragments. […]
(b) Bar diagram showing Kd values, which were determined based on the quenching effect of Tau/Tau fragments on the fluorescent properties of NBD-labeled F-actin. […]

As for “MARK2-phosphorylated Tau: full-length Tau phosphorylated by MARK2 at S262, S293, S305, S324, S356, and S416”, the “bundling of F-actin” value in the test with F-actin [1] is on record as “failed in bundling actin filaments”. For the same substance, the “F-actin-induced NMR signal attenuation near phosphorylation sites / F-actin binding in words” value in the test with F-actin [2] was “little attenuation of NMR signals in vicinity of the phosphorylation sites; also recorded: attenuates its binding to F-actin”.

As for “Tau(254–290)-L266E: mutant version of Tau(254–290), in which L266 was replaced by a glutamate (Ac-KNVKSKIGSTENEKHQPGGGKVQIINKKLDLSNVQSK-NH2)”, in the test with NBD-labeled F-actin, the “affinity for F-actin relative to parent (in words)” value was “decrease in affinity”. The “bundling of F-actin” value with F-actin [1] is “less efficient in promoting F-actin bundling”. For the same substance, in the test on F-actin [3], the “STD signal relative to wild-type peptide” value is reported as “decreased STD signal”. For the same substance, in the test with F-actin [4], the “transfer NOE cross-peaks in presence of F-actin” value is given as “no additional cross-peaks were observed”.

The values are drawn from article PMC5719408, “Multivalent cross-linking of actin filaments and microtubules through the microtubule-associated protein Tau” (Nature Communications, 2017).
